Where two headings read alike, the source gives them in different places. No end group written: not given here.
Experiments:
sstr2 = target: T1, sstr2 (Homo sapiens, UniProt P30874); test: Equilibrium binding of [3H]-BN83250 to THP-1 cells
T1 construct: with 1×10^6 THP-1 cells in Gey's Balanced Salt Solution; endogenous in cells; host or cells: THP-1 cells (whole cells, 4° C.)
Method: Methods: [^3H]-BN83250 was synthesesized from (S,E)-3-(2′,2′-dimethyldodec-4′-enoylamino)-caprolactam by catalytic hydrogenation using tritium gas over a palladium catalyst (CRB Ltd, Cleveland, UK), yielding the tritiated product at a concentration of […] in ethanol with a specific activity of 220 Ci/mmol. The (S,E)-3-(2′,2′-dimethyldodec-4′-enoylamino)-caprolactam was prepared as follows: (S,S)-3-amino-caprolactam hydro-pyrrolidine-5-carboxylate (10 mmol) and Na2CO3 (30 mmol) in water (30 ml) were added to a solution of 2,2-dimethyl-dodec-4-enoyl chloride (10 mmol) in dichloromethane (30 ml) at ambient temperature and the reaction was stirred for 12 hours. The organic layer was then separated and the aqueous phase was extracted with additional dichloromethane (2×25 ml). The combined organic layers were dried over Na2CO3 and reduced in vacuo. The residue was purified by silica column chromatography (1:1 EtOAc:hexanes to EtOAc) to give […]-3-(2′,2′-dimethyl-dodec-4′-enoyl)amino-caprolactam as a colourless oil (2.12 g, 63%). The radiolabelled compound was stored in the dark at 4° C. until required. Prior to use the specific activity was adjusted by addition of unlabelled BN83250.
For the analysis of binding, individual reactions were set up (in triplicate for each condition), with 1×10^6 THP-1 cells in Gey's Balanced Salt Solution, 10 nM [^3H]-BN83250 (at 50 Ci/mmol) and various concentrations of (S)-3(2′2′-dimethylpropionoylamino)-tetrahydropyridin-2-one (10 pM to 10 μM). Excess (100 μM) unlabelled BN83250 was used to determine the level of non-specific binding. After 2 hours at 4° C. (conditions previously shown to achieve equilibrium binding, and which prevent uptake of the radioligand that would result in an over-estimate of binding) excess label was washed away by centrifugation (3 washes with 5 ml of Gey's Balanced Salt Solution) and the bound radioactivity was determined by scintillation counting of the solubilised cell pellet.

[1] = test system: rat peripheral blood leukocytes; test: Rat chemokine-induced PBMC migration assay; type: cell-based; settings: Table 3
Panc-2H4 cells = test: Human Panc-2H4 insulin suppression assay; type: cell-based; settings: for Human Panc-2H4 insulin suppression assay Max effect: suppression compared to vehicle
Description: (§1) Two different assays for “classical” sstr2 functions were adopted: (1) cultured foetal rat pituitary cells secreted growth hormone which is inhibited by sstr2 agonists in a dose-dependent fashion and (2) selected glucose-sensitive sub-clones of the human Panc-1 cell line secrete insulin which is inhibited by sstr2 agonists in a dose-dependent fashion.
Glucose-sensitive sub-clones of the human Panc-1, a cell line derived from a pleiomorphic epithelioid carcinoma of the exocrine pancreas, were obtained essentially as described by Hamil et al. (2008) Biomed. Sci. Instrum. 44:441-6. Briefly, Panc-1 cells were subcultured in 24 well plates, and the medium was supplemented with an additional 5% glucose. […] The resulting sub-lines were then tested for glucose sensitivity by preparing wells of a 96-well plate (5×10^4 cells per well) which were then exposed to cultured medium containing a range of glucose concentrations (low glucose DMEM, DMEM, DMEM+1% glucose, DMEM+2.5% glucose and DMEM+5% glucose). After 24 hrs incubation, the conditioned medium was collected and assayed for insulin secretion by ELISA (Linco; cat# EZHI-14K) in accordance with the manufacturer's instructions.
Further 96 well plates were prepared using Panc-2H4 (5×10^4 cells per well) in DMEM. After 24 hrs, the medium was switched to DMEM+5% glucose containing various test agents at various concentrations (triplicate wells per condition). After a further 24 hrs, the conditioned medium was harvested and the concentration of insulin was determined by ELISA as described above.
(§2) Results were reported as the mean±SD, expressed as the fold change from cells in the presence of vehicle only.

fetal rat pituicytes = test: Rat pituicyte GH suppression assay; type: cell-based; settings: for EC50 / Rat pituicyte GH suppression assay Max effect: Table 3; for EC50: read-out: Rat pituicyte GH suppression assay ED50; for Rat pituicyte GH suppression assay Max effect: suppression compared to vehicle
Description: as §1
Methods: Cultures of fetal rat pituicytes were established exactly as previously described (Murray et al. (2004) J. Clin. Endocrinol. Metab. 89:3027-32) by enzymatic dispersion. After 48 hrs in low glucose DMEM plus 10% FCS, cells in 48 well plates (5×10^4 cells per well) were washed for 4 hrs in serum-free DMEM and then incubated with test agents at various concentrations for a further 24 hrs in serum-free DMEM. At the end of this period, the conditioned medium was harvested, any cell debris removed by centrifugation and assayed for GH using a commercially available ELISA (Linco; cat# EZRMGH-45K) in accordance with the manufacturer's instructions.
as §2

THP-1 cells = test: MCP-1 induced THP-1 cell migration, Transwell assay; type: cell-based, human; settings: for Human chemokine-induced THP-1 migration assay Max effect: Table 3; for Max effect (maximum inhibition): Table 2, highest dose tested (1-10 μM); for Maximal inhibition of leukocyte migration: maximal / very high doses, Example 6
Method: Leukocyte migration was measured using the 96-well format micro Transwell® assay system from Neuroprobe (Gaithersburg, Md., USA). In principle, this assay consists of two chambers separated by a porous membrane. The chemoattractant is placed in the lower compartment and the cells are placed in the upper compartment.
The method was performed essentially as previously described (Reckless & Grainger (1999) Biochem. J. 340:803-11).
First, the cell suspension to be placed in the upper compartment was prepared. The THP-1 cells were pelleted by centrifugation (770×g; 4 mins) and washed with Geys Balanced Salt Solution with 1 mg/ml BSA (GBSS+BSA). This wash was then repeated, and the cells re-pelleted before being resuspended in a small volume of GBSS+BSA for counting, for example using a standard haemocytometer.
The volume of GBSS+BSA was then adjusted depending on the number of cells present so that the cells were at final density of 4.45×10^6 cells per ml of GBSS+BSA. This ensured that there were 100,000 THP-1 cells in each 25 μl of the solution to be placed in the upper chamber of the plate.
The suspension of THP-1 cells at 4.45×10^6 cells/ml was divided into three pots. […] To the second pot, the BSCI was added at the same concentration as in the first pot, but additionally the sstr2 antagonist was also added (for example BIM 23454 [Tulipano et al. (2002) 143:1218-24] or BIM 23627 were added at 66 nM final concentration from a stock solution in GBSS). To the third pot, GBSS+BSA plus vehicle as appropriate was added so that the volumes in three pots are equal, acting as a control.
Next, the chemoattractant solution to be placed in the lower compartment was prepared. MCP-1 was diluted in GBSS+BSA to give a final concentration of 25 ng/ml (after all additions). Note that, as recommended by Frow et al (Med. Res. Rev. 24:276-98) this is the concentration of MCP-1 which induces maximal migration in this system. This solution was divided into three pots, as for the cell suspension. To one pot, the BSCI was added to the same final concentration as was added to the cell suspension, in the second pot the BSCI and the sstr2 antagonist were both added at the same concentration as previously added to the cell suspension, while to the remaining pot GBSS+BSA plus vehicle as appropriate was added so that the volumes in the three pots were equal.
Once the chemoattractant solutions for the lower wells and cell solutions for the upper chambers were prepared, the migration chamber was assembled. 29 μl of the appropriate chemoattractant solution was placed into the lower well of the chamber. Assays were performed with at least triplicate determinations of each condition. Once all the lower chambers were filled, the porous membrane was applied to the chamber in accordance with the manufacturer's instructions. Finally, 25 μl of the appropriate cell solution was applied to each upper chamber. A plastic lid was placed over the entire apparatus to prevent evaporation.
The assembled chamber was incubated at 37° C., 5% CO2, for 2 hours.
At the end of the incubation, the liquid cell suspension was gently removed from the upper chamber, 20 μl of ice-cold 20 mM EDTA in PBS was added to the upper chamber, and the apparatus was incubated at 4° C. for 15 mins. This procedure caused any cells adhering to the underside of the membrane to fall into the lower chamber.
After this incubation the filter was carefully flushed with GBSS+BSA to wash off the EDTA, and then the filter was removed.
The number of cells migrated into the lower chamber under each condition can then be determined by a number of methods, including direct counting, labelling with fluorescent or radioactive markers or through the use of a vital dye. Typically, we utilised the vital dye MTT.

5HT2a = settings: rodents; cited from earlier work
platelets = test: ADP-mediated platelet activation/aggregation; type: cell-based
Jurkat T cells = test: SDF-1α induced migration of parental Jurkat T cells; type: cell-based, human
Method: Results: The level of the SDF-1α, receptor CXCR4 was similar on Jurkat-D3B and the parental Jurkat T cell line. Furthermore, the Jurkat-D3B cells responded to SDF-1α in a Transwell® chemotaxis assay (see Example 1 for the methodology employed) over a similar concentration range to the parental cell line.
Jurkat T cells and Jurkat-D3B cells were induced to migrate in response to 100 ng/ml SDF-1α (R&D systems; the concentration of SDF-1α which induced maximal cell migration in both lines). The BSCI BN83250 was then added at various concentrations between 0 nM and 1000 nM (each in triplicate) to both the upper and lower compartments (at the same concentration in each compartment, so as not to create a gradient of BSCI concentration). DMSO (1% final concentration) was used as the vehicle, and was present in all wells at equal concentration.

[2] = Table 3, read-out: Human Panc-2H4 insulin suppression assay ED50

T1 sequence (P30874 whole entry): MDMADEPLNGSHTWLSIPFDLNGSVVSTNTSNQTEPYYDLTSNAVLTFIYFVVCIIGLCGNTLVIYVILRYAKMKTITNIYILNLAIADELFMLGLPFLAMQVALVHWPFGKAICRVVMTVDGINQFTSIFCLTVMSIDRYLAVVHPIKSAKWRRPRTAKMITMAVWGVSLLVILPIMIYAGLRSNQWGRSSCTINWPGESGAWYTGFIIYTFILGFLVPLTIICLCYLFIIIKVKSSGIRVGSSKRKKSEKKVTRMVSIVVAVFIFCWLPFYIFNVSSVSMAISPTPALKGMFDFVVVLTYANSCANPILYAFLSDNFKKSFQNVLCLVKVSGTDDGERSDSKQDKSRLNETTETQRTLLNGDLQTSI

Molecule: CC1(C(=O)N[C@H]2CCCCNC2=O)CCCCC1 [(S)-3-(1′-methylcyclohexyl-1′-carbonylamino)-caprolactam]
- Competition with BN83250 binding to sstr2, in words (sstr2): compete with BN83250 binding to sstr2 to a similar extent

Molecule: O=C1NCCCC[C@@H]1NC(=O)C12CC3CC(CC(C3)C1)C2 [BN83470, (S)-3-(admantane-1′-carbonylamino)-caprolactam]
- Competition with BN83250 binding to sstr2, in words (sstr2): compete with BN83250 binding to sstr2 to a similar extent
- Rat chemokine-induced PBMC migration assay Max effect [1]: 100%
- EC50 (Panc-2H4 cells; [2]): > 1000 nM
- Human Panc-2H4 insulin suppression assay Max effect (Panc-2H4 cells; Table 3): <10%
- Inhibition of GH release, in words (fetal rat pituicytes): inhibited GH release only at much higher concentrations
- EC50 (fetal rat pituicytes): 270 nM
- Rat pituicyte GH suppression assay Max effect (fetal rat pituicytes): 56%
- Human chemokine-induced THP-1 migration assay Max effect (THP-1 cells): 100%

Molecule: C[C@@H](N)Cc1c2ccoc2c(Br)c2ccoc12 [Bromo-DragonFLY]
- Head twitching by classical 5HT2a agonists (5HT2a): induce this classical effect

Molecule: C[C@@H](c1c[nH]c2ccccc12)[C@@H](NC(=O)N1CCC(n2c(=O)[nH]c3ccccc32)CC1)C(=O)NC[C@@H]1CCC[C@H](CN)C1 [L-779,976]
- EC50 (Panc-2H4 cells; [2]): 17 nM
- Human Panc-2H4 insulin suppression assay Max effect (Panc-2H4 cells; Table 3): 40%
- Panc-2H4 insulin suppression assay (“classical” target) Max Effect (Panc-2H4 cells; Table 4): 40%
- EC50 (Panc-2H4 cells; Table 4, 0.01 nM to 1,000 nM, DMSO 1%, read-out: Panc-2H4 insulin suppression assay (“classical” target) ED50): 17 nM
- Panc-2H4 insulin suppression assay (“classical” target) Max Effect (Panc-2H4 cells; Table 5): 40%
- EC50 (Panc-2H4 cells; Table 5, read-out: Panc-2H4 insulin suppression assay (“classical” target) ED50): 17 nM
- EC50 (fetal rat pituicytes): 2.9 nM
- Rat pituicyte GH suppression assay Max effect (fetal rat pituicytes): 55%
- Human chemokine-induced THP-1 migration assay Max effect (THP-1 cells): 65%
- Chemokine-induced THP-1 cell migration assay (“BSCI” target) Max Effect (THP-1 cells; Table 4): 65%
- Chemokine-induced THP-1 cell migration assay (“BSCI” target) Max Effect (THP-1 cells; Table 5): 65%

Molecule: CCN(CC)C(=O)[C@@H]1C=C2c3cccc4[nH]cc(c34)C[C@H]2N(C)C1 [LSD]
- Head twitching by classical 5HT2a agonists (5HT2a): induce this classical effect

Molecule: [3H]C(CCCCCCC)C([3H])CC(C)(C)C(=O)N[C@H]1CCCCNC1=O (stereo partly drawn) [[^3H]-BN83250, 4′,5′-^3[H] (S)-3-(2′,2′-dimethyldodecanoyl)amino-caprolactam]
- Binding sites per cell (sstr2; THP-1 cells): 100,000 to 200,000 sites per cell
- Kd (sstr2; THP-1 cells, 2 hours at 4° C., read-out: Affinity (Scatchard analysis)): ~80 nM

Molecule: Clc1cccc(Cl)c1N=C1NCCN1 [clonidine]
- Effect on ADP-mediated platelet activation/aggregation (platelets): significant potentiate ADP-mediated platelet aggregation

Molecule: CC(C)C[C@H]1C(=O)N2CCC[C@H]2[C@]2(O)O[C@](NC(=O)[C@@H]3C[C@@H]4c5cccc6[nH]cc(c56)C[C@H]4N(C)C3)(C(C)C)C(=O)N12 [dihydroergocryptine]
- Effect on ADP-mediated platelet activation/aggregation (platelets): significant potentiate ADP-mediated platelet aggregation

Molecule: COc1cc(CCN)cc(OC)c1OC [mescaline]
- Head twitching by classical 5HT2a agonists (5HT2a): induce this classical effect

Molecule: CN(C)CCc1c[nH]c2cccc(O)c12 [psilocin]
- Head twitching by classical 5HT2a agonists (5HT2a): induce this classical effect

Molecule: COC(=O)[C@@H]1[C@H]2C[C@H]3c4[nH]c5ccccc5c4CCN3C[C@@H]2CC[C@@H]1O [yohimbine]
- Inhibition of SDF-1α induced migration of Jurkat T cells, in words (Jurkat T cells): neither agent inhibits
- Effect on ADP-mediated platelet activation/aggregation (platelets): significant potentiate ADP-mediated platelet aggregation

Molecule: Cortistatin: more recently described somatostatin analog (DRMPCRNFFWKTFSSCK; ends and bridges not checked; cysteine pairing not given here; UniProt O00230 89-105, looked up)
- Max effect (maximum inhibition) (THP-1 cells): 40-60%
- Maximal inhibition of leukocyte migration (THP-1 cells): ~50%

Molecule: Sst-28: alternatively processed sst28 natural ligand
- Max effect (maximum inhibition) (THP-1 cells): 40-60%
- Maximal inhibition of leukocyte migration (THP-1 cells): 40-60%

Reference: US20120053076A1, “METHODS FOR IDENTIFICATION” (Cambridge Enterprise Limited, priority 2009, published 2012)
